Measurements from ChEMBL document CHEMBL3885881, “DrugMatrix”.

Species on record: Rattus norvegicus
Assay: DrugMatrix - Regimen: Daily Repeat
Format: toxicity, organism-based, Sprague-Dawley
Design: regimen Daily Repeat, gender Male, age 6-8 weeks
Details: in vivo, po, route oral GAVAGE, vehicle .5 % CMC; for ABSOLUTE BASOPHIL / ABSOLUTE EOSINOPHIL / ABSOLUTE LYMPHOCYTE / ABSOLUTE MONOCYTE / ABSOLUTE SEGMENTED NEUTROPHIL / BASOPHIL / EOSINOPHIL / ERYTHROCYTE COUNT / HEMATOCRIT / HEMOGLOBIN / LEUKOCYTE COUNT / LYMPHOCYTE / MEAN CORPUSCULAR HEMOGLOBIN / MEAN CORPUSCULAR HEMOGLOBIN CONCENTRATION / MEAN CORPUSCULAR VOLUME / MONOCYTE / NEUTROPHIL / NUCLEATED RED BLOOD CELLS / PLATELET COUNT: tissue Blood; for ALANINE AMINOTRANSFERASE / ALBUMIN / ALKALINE PHOSPHATASE / ASPARTATE AMINOTRANSFERASE / BLOOD UREA NITROGEN / CARBON DIOXIDE / CHLORIDE / CHOLESTEROL / CREATINE PHOSPHOKINASE / CREATININE / GLUCOSE / LACTATE DEHYDROGENASE / LIPASE / PHOSPHORUS / POTASSIUM / SODIUM / TOTAL BILIRUBIN / TOTAL PROTEIN / URIC ACID: tissue Plasma
[1] = 80 mg/kg, 72 h, dose level Low, time 3 day
[2] = 80 mg/kg, 120 h, dose level Low, time 5 day
[3] = 1500 mg/kg, 72 h, dose level High, time 3 day
[4] = 1500 mg/kg, 120 h, dose level High, time 5 day

## O=c1cnn([C@@H]2O[C@H](CO)[C@@H](O)[C@H]2O)c(=O)[nH]1 [6-AZAURIDINE]
[1]
  ABSOLUTE BASOPHIL: 0 CELLS/uL
  ABSOLUTE EOSINOPHIL: 0 CELLS/uL
  ABSOLUTE LYMPHOCYTE: 15386 CELLS/uL
  ABSOLUTE MONOCYTE: 95.33 CELLS/uL
  ABSOLUTE SEGMENTED NEUTROPHIL: 852 CELLS/uL
  BASOPHIL: 0%
  EOSINOPHIL: 0%
  ERYTHROCYTE COUNT: 5.24 x10E6/uL
  HEMATOCRIT: 34.9%
  HEMOGLOBIN: 13.33 G/DL
  LEUKOCYTE COUNT: 16.33 x10E3/uL
  LYMPHOCYTE: 94%
  MEAN CORPUSCULAR HEMOGLOBIN: 25.47 pg
  MEAN CORPUSCULAR HEMOGLOBIN CONCENTRATION: 38.2 G/DL
  MEAN CORPUSCULAR VOLUME: 66.6 fL
  MONOCYTE: 0.67%
  NEUTROPHIL: 5.33%
  NUCLEATED RED BLOOD CELLS: 0.33 /100WBC
  PLATELET COUNT: 1177.67 x10E3/uL
  ALANINE AMINOTRANSFERASE: 32.67 u/L
  ALBUMIN: 4.23 G/DL
  ALKALINE PHOSPHATASE: 410.67 u/L
  ASPARTATE AMINOTRANSFERASE: 74.33 u/L
  BLOOD UREA NITROGEN: 15.33 mg/dL
  CARBON DIOXIDE: 25 mmol/L
  CHLORIDE: 106.67 MEQ/L
  CHOLESTEROL: 73.67 mg/dL
  CREATINE PHOSPHOKINASE: 134.33 u/L
  CREATININE: 0.2 mg/dL
  GLUCOSE: 173.33 mg/dL
  LACTATE DEHYDROGENASE: 86.67 u/L
  LIPASE: 10.33 u/L
  PHOSPHORUS: 12.67 mg/dL
  POTASSIUM: 6.8 MEQ/L
  SODIUM: 148.73 MEQ/L
  TOTAL BILIRUBIN: 0.2 mg/dL
  TOTAL PROTEIN: 5.93 G/DL
  URIC ACID: 1.7 mg/dL
[2]
  ABSOLUTE BASOPHIL: 0 CELLS/uL
  ABSOLUTE EOSINOPHIL: 0 CELLS/uL
  ABSOLUTE LYMPHOCYTE: 12013.67 CELLS/uL
  ABSOLUTE MONOCYTE: 153.67 CELLS/uL
  ABSOLUTE SEGMENTED NEUTROPHIL: 1099.33 CELLS/uL
  BASOPHIL: 0%
  EOSINOPHIL: 0%
  ERYTHROCYTE COUNT: 5.94 x10E6/uL
  HEMATOCRIT: 37.2%
  HEMOGLOBIN: 13.73 G/DL
  LEUKOCYTE COUNT: 13.27 x10E3/uL
  LYMPHOCYTE: 90.67%
  MEAN CORPUSCULAR HEMOGLOBIN: 23.2 pg
  MEAN CORPUSCULAR HEMOGLOBIN CONCENTRATION: 36.93 G/DL
  MEAN CORPUSCULAR VOLUME: 62.77 fL
  MONOCYTE: 1.33%
  NEUTROPHIL: 8%
  NUCLEATED RED BLOOD CELLS: 0.33 /100WBC
  PLATELET COUNT: 1474.67 x10E3/uL
  ALANINE AMINOTRANSFERASE: 38 u/L
  ALBUMIN: 4.23 G/DL
  ALKALINE PHOSPHATASE: 363.67 u/L
  ASPARTATE AMINOTRANSFERASE: 88.33 u/L
  BLOOD UREA NITROGEN: 20.33 mg/dL
  CARBON DIOXIDE: 22 mmol/L
  CHLORIDE: 104.33 MEQ/L
  CHOLESTEROL: 68 mg/dL
  CREATINE PHOSPHOKINASE: 230.33 u/L
  CREATININE: 0.22 mg/dL
  GLUCOSE: 166.67 mg/dL
  LACTATE DEHYDROGENASE: 119.33 u/L
  LIPASE: 10.33 u/L
  PHOSPHORUS: 13.2 mg/dL
  POTASSIUM: 6.55 MEQ/L
  SODIUM: 146.7 MEQ/L
  TOTAL BILIRUBIN: 0.13 mg/dL
  TOTAL PROTEIN: 6.17 G/DL
  URIC ACID: 2.23 mg/dL
[3]
  ABSOLUTE BASOPHIL: 0 CELLS/uL
  ABSOLUTE EOSINOPHIL: 0 CELLS/uL
  ABSOLUTE LYMPHOCYTE: 9340.33 CELLS/uL
  ABSOLUTE MONOCYTE: 29.33 CELLS/uL
  ABSOLUTE SEGMENTED NEUTROPHIL: 363.67 CELLS/uL
  BASOPHIL: 0%
  EOSINOPHIL: 0%
  ERYTHROCYTE COUNT: 5.26 x10E6/uL
  HEMATOCRIT: 32.03%
  HEMOGLOBIN: 12.07 G/DL
  LEUKOCYTE COUNT: 9.73 x10E3/uL
  LYMPHOCYTE: 96%
  MEAN CORPUSCULAR HEMOGLOBIN: 22.9 pg
  MEAN CORPUSCULAR HEMOGLOBIN CONCENTRATION: 37.7 G/DL
  MEAN CORPUSCULAR VOLUME: 60.9 fL
  MONOCYTE: 0.33%
  NEUTROPHIL: 3.67%
  NUCLEATED RED BLOOD CELLS: 0 /100WBC
  PLATELET COUNT: 1317.67 x10E3/uL
  ALANINE AMINOTRANSFERASE: 17.33 u/L
  ALBUMIN: 4.3 G/DL
  ALKALINE PHOSPHATASE: 341 u/L
  ASPARTATE AMINOTRANSFERASE: 104.67 u/L
  BLOOD UREA NITROGEN: 15.33 mg/dL
  CARBON DIOXIDE: 18.67 mmol/L
  CHLORIDE: 104.33 MEQ/L
  CHOLESTEROL: 69.33 mg/dL
  CREATINE PHOSPHOKINASE: 704 u/L
  CREATININE: 0.25 mg/dL
  GLUCOSE: 179.67 mg/dL
  LACTATE DEHYDROGENASE: 167.67 u/L
  LIPASE: 10 u/L
  PHOSPHORUS: 12.03 mg/dL
  POTASSIUM: 6.43 MEQ/L
  SODIUM: 147.5 MEQ/L
  TOTAL BILIRUBIN: 0.2 mg/dL
  TOTAL PROTEIN: 5.87 G/DL
  URIC ACID: 1.67 mg/dL
[4]
  ABSOLUTE BASOPHIL: 0 CELLS/uL
  ABSOLUTE EOSINOPHIL: 44.67 CELLS/uL
  ABSOLUTE LYMPHOCYTE: 13100 CELLS/uL
  ABSOLUTE MONOCYTE: 44.67 CELLS/uL
  ABSOLUTE SEGMENTED NEUTROPHIL: 1177.33 CELLS/uL
  BASOPHIL: 0%
  EOSINOPHIL: 0.33%
  ERYTHROCYTE COUNT: 4.96 x10E6/uL
  HEMATOCRIT: 30%
  HEMOGLOBIN: 11.57 G/DL
  LEUKOCYTE COUNT: 14.37 x10E3/uL
  LYMPHOCYTE: 91%
  MEAN CORPUSCULAR HEMOGLOBIN: 23.37 pg
  MEAN CORPUSCULAR HEMOGLOBIN CONCENTRATION: 38.53 G/DL
  MEAN CORPUSCULAR VOLUME: 60.57 fL
  MONOCYTE: 0.33%
  NEUTROPHIL: 8.33%
  NUCLEATED RED BLOOD CELLS: 0 /100WBC
  PLATELET COUNT: 1665.67 x10E3/uL
  ALANINE AMINOTRANSFERASE: 14.33 u/L
  ALBUMIN: 3.5 G/DL
  ALKALINE PHOSPHATASE: 153 u/L
  ASPARTATE AMINOTRANSFERASE: 98.33 u/L
  BLOOD UREA NITROGEN: 16.33 mg/dL
  CARBON DIOXIDE: 33 mmol/L
  CHLORIDE: 105.33 MEQ/L
  CHOLESTEROL: 68.67 mg/dL
  CREATINE PHOSPHOKINASE: 888.33 u/L
  CREATININE: 0.12 mg/dL
  GLUCOSE: 159 mg/dL
  LACTATE DEHYDROGENASE: 129 u/L
  LIPASE: 9.33 u/L
  PHOSPHORUS: 11.03 mg/dL
  POTASSIUM: 6.72 MEQ/L
  SODIUM: 145.83 MEQ/L
  TOTAL BILIRUBIN: 0.2 mg/dL
  TOTAL PROTEIN: 4.83 G/DL
  URIC ACID: 1.5 mg/dL
